Source: patent US20110020326A1, “METHOD OF TREATING POLYCYSTIC KIDNEY DISEASE” (CHILDREN'S MEDICAL CENTER CORPORATION, priority 2008, published 2011)
Entries after “also recorded” stand apart in the source; their conditions may differ.

What was measured:
[1] = system: Pkd1^null/null embryonic kidneys; assay: Embryonic kidney organ culture model of PKD (8-Br-cAMP-induced cyst formation, H&E sections); format: cell-based, mouse; conditions: 96 hours of culture
Method: Embryonic mice kidneys of E13.5 were dissected out and cultured in media^29 (1% FBS, 5 mg/ml Transferin, 0.05 mM Sodium Selenite, 100 nM hydrocortisone, 2 nM T3, 25 ng/ml PGE1, 100 U/ml Penicillin/streptomycin, 100 mM 8-Br-cAMP) in Center-Well Organ Culture Dish (BD Labware, Franklin Lakes, N.J.). The following day, the kidneys from the same embryo were treated with either […] Met Kinase Inhibitor (Calbiochem, La Jolla, CA) or DMSO (the same volume with Met Kinase Inhibitor). The media were changed everyday with the same additives as above. After […], kidneys were fixed by 4% PFA, and embedded in paraffin. Paraffin sections were stained with hematoxylin and eosin.
Embryonic mice kidneys of E13.5 were dissected out and cultured in media (1% FBS, 5 mg/ml Transferin, 0.05 mM Sodium Seelenite, 100 nM hydrocortisone, 2 nM T3, 25ng/ml PGE1, 100 U/ml Penicillin/streptomycin, 100 mM 8-Br-cAMP) in Center-Well Organ Culture Dish (BD Labware, Franklin Lakes, N.J.). The following day, the kidneys from the same embryo were treated with either 2 microgram/ml c-MET blocking antibody (R&D Systems, Minneapolis, Minn.) or PBS (the same volume with c-Met blocking antibody). The media were changed everyday with the same additives as above. After 4 days, kidneys were fixed by 4% PFA, and embedded in paraffin. Paraffin sections were stained with hematoxylin and eosin.
E13.5 embryonic kidneys were put in organ culture along with 100 μM 8-Br-cAMP, with or without 5 μM c-MET inhibitor (SU11274, from Calbiochem). (B) E13.5 embryonic kidneys were put in organ culture along with 100 mM 8-Br-cAMP, with or without 5 μg/ml c-MET neutralizing antibody (R&D Systems). (C) E13.5 embryonic kidneys were put in organ culture along with 100 mM 8-Br-cAMP, with or without 0.5 μM c-MET inhibitor (PHA665752, from Tocris, UK). Hematoxylin & Eosin stained sections of kidneys are shown after 96 hours of culture.

[2] = system: mTOR phosphorylation in Pkd1^null/null cells; assay: mTOR phosphorylation (Western blot phospho-mTOR / total mTOR) in Pkd1 null/null cells; format: cell-based, mouse; conditions: c-Met inhibitor 5 mM for 40 min (FIG. 1 legend) / 5 μM, 4 hours (Example 5), FIG. 1a, b
Method: Pkd1 wild type (WT) and Pkd1^null/null cell line were isolated from embryonic day 15.5 kidneys from a cross of Pkd1^null/+ mice that also carry a temperature-sensitive simian virus 40 (SV40) large T-antigen transgene, similar with the protocol described in reference 23. Wt and Pkd1^null/null cells were cultured in Dulbecco's modified Eagle medium containing 2% fetal bovine serum, 0.75 μg/L γ-interferon, 1.0 g/L insulin, 0.67 mg/L sodium selenite, 0.55 g/L transferrin, 36 ng/ml hydrocortisone, 100 U/ml Penicillin/streptomycin under 33° C. and 5% CO2^23.
Immunoprecipitation and western-blot were performed using whole cell lysates unless otherwise specified. Confluent cells were collected, washed with PBS, lysed with lysis buffer (20 mM Tris/HCl, 1 mM EDTA, 150 mM NaCl, 1% Triton X-100) containing proteinase inhibitor cocktail tablet (Roche #1697498, Mannheim, Germany) at 4° C. for 30 minutes. After centrifugation at 13,000 rpm for 15 minutes, supernatants were incubated with specific antibody at 4° C. for 1 hour, followed by incubation with Protein G conjugated beads (Pierce Biotechnology, IL) at 4° C. for 2 hours, washed in lysis buffer. Samples were running on 7.5% acrylamide gel, transferred to PVDF membranes and visualized by immunoblotting with respective antibodies. […]

[3] = FIG. 6, Pkd1^null/null kidneys at E15.5, 10 mM 8-Br-cAMP, 5 μM c-MET inhibitor

| SMILES | cyst formation ([1]; FIG. 7C, E13.5 Pkd1 null/null kidneys, 100 mM 8-Br-cAMP, 0.5 μM) | effect on nephrogenesis ([1]; FIG. 7C, E13.5 kidneys, 100 mM 8-Br-cAMP, 0.5 μM) | mTOR phosphorylation [2] | mTOR phosphorylation ([2]; listed as Met Kinase Inhibitor) | cyst formation [1, 3] | size and number of cysts [1, 3] | effect on nephrogenesis ([1]; FIG. 6, wild type and Pkd1^null/null kidneys, 5 μM c-MET inhibitor, listed as c-MET inhibitor) | effect on nephrogenesis ([1]; FIG. 6, wild type and Pkd1^null/null kidneys, 5 μM c-MET inhibitor, listed as c-Met inhibitor) | cyst formation ([1]; FIG. 7A, E13.5 Pkd1 null/null kidneys, 100 μM 8-Br-cAMP, 5 μM) | effect on nephrogenesis ([1]; FIG. 7A, E13.5 kidneys, 100 μM 8-Br-cAMP, 5 μM) |
| --- | --- | --- | --- | --- | --- | --- | --- | --- | --- | --- |
| Cc1[nH]c(/C=C2\C(=O)Nc3ccc(S(=O)(=O)Cc4c(Cl)cccc4Cl)cc32)c(C)c1C(=O)N1CCC[C@@H]1CN1CCCC1 [PHA665752, (2R)-1-[[5-[(Z)45-[[(2,6-Dichlorophenyl)methyl]sulfony 1]-1,2-dihydro-2-oxo-3H-indo1-3-ylidenelmethyl]-2,4-dimethyl-1H-pyrrol-3-yl]carbonyl]-2-(1-pyrrolidinylmethyl) pyrrolidone] | decreased | no apparent effect | – | – | – | – | – | – | – | – |
| Cc1[nH]c(/C=C2\C(=O)Nc3ccc(S(=O)(=O)N(C)c4cccc(Cl)c4)cc32)c(C)c1C(=O)N1CCN(C)CC1 [SU11274, (3Z)-N-(3-chlorophenyl)-3-({3,5-dimethyl-4-[(4-methylpiperazin-1-yl)carbonyl]-1H-pyrrol-2-yl}methylene)-N-methyl-2-oxoindoline-5-sulfonamide] | – | – | inhibited | reduced mTOR phosphorylation in Pkd1^null/null cells, to a baseline level observed in WT cells | reduced cyst formation in organ culture by Pkd1^null/null mutant kidneys to the basal level observed in WT kidneys; also recorded: decreased | decreased | no apparent effect | did not have a marked effect | decreased | no apparent effect |
